According to publication PMC10415494, “Ga(III) pyridinecarboxylate complexes: potential analogues of the second generation of therapeutic Ga(III) complexes?” (Journal of Biological Inorganic Chemistry, 2023):

Tests used:
[1] = Potentiometric determination of ligand protonation (dissociation) constants; type: physicochemical; conditions: 25 °C, I(KNO3) = 0.1 M
Method: The stock solution of HPic and H2Dpic was prepared by dissolving in demineralized water (c(ligand) = 0.02 M). The gallium(III) ion solution was prepared from anhydrous gallium(III) nitrate (c(Ga^3+) = 0.05 M) and was standardized by back titration of excess of EDTA with zinc(II). Decarbonated potassium hydroxide solution (approx. 0.2 M) was used as a titrant that was standardized by potassium hydrogen phthalate (c(KHP) = 0.1 M). Standard inert electrolyte of nitric acid was used in all titrations (c(HNO3) = 0.03 M, I(HNO3/KNO3) = 0.1 M). Potentiometric measurements were carried out using a TitroLine 7000 dosage system with a BlueLine combination electrode (SI Analytics) in a glass vessel (5 mL) thermostated at 25 ± 0.1 °C at an ionic strength I(KNO3) = 0.1 M. Inert atmosphere was ensured by a constant flow of a nitrogen gas. Precise calibration of the electrode was carried out by the titration of 0.03 M HNO3 with 0.2 M KOH in the range –log[H^+] = 1.8–12.0, with the pH-meter yielding E values. The relation between E and –log[H^+] is expressed by Eq. (1) where the term E^0 contains the standard potentials of the electrode and the contribution of inert ions to the liquid-junction potential. The value S corresponds to the Nernstian slope, the value of which should be close to the theoretical value, and j1[H^+] and j2[OH^–] = j2Kw/[H^+] are contributions of the H^+ and OH^– ions, respectively, to the liquid-junction potential. The pKw value was 13.78 in Eq. (1).1 E=E^0-S-logH^++j1H^++j2Kw/H^+
The parameters j1 and j2 cause deviation from linear dependence between E and –log[H^+] only in strongly acidic and strongly alkaline solutions. The picolinic and dipicolinic acid protonation constants were determined with ligand concentration 0.004 M. The stability constants in the Ga-HPic and Ga-H2Dpic binary system were determined by the ligand concentrations 0.004 and the Ga^3+ concentration was 0.004, 0.002 and 0.001 M in dependence on the ligand to metal ratio.
The protonation constants β110, β210 are the concentration constants and are defined by β110 = [HL]/ [H][L], β210 = [H2L]/ [H]^2[L] (pK2 = logβ110, pK1 = logβ210- logβ110); the stability constants are defined by βrqp = [HrLqMp]/[H]^r[L]^q[M]^p. The equilibrium constants were obtained by fitting the titration data with OPIUM [23]. The following hydrolysis constants were used for the calculations: βpr = [Mp(OH)r^3−r][H]^r/[M]^p; log β11 = − 2.74; log β12 = − 7.0; log β13 = − 11.96; log β14 = − 15.52 [24].

any model microorganism = test: Antimicrobial activity, macrodilution method, all model microorganisms together; type: cell-based; conditions: free ligands, range 0.5–2.0 mM
Method: Cultures of bacteria (in Mueller–Hinton broth, MHB) and yeasts (in Sabouraud’s growth medium, SB) were incubated under shaking (250 rpm) at 37 °C. The growth of bacteria and yeasts was evaluated by measuring the absorbance of the growing cultures (A590) until the cultures reached the stationary growth phase. The effects of gallium(III) complexes on the growth of filamentous fungi Rhizopus oryzae (R. oryzae) CCM F-8284, Alternaria alternata (A. alternata) CCM F-128 and Microsporum gypseum (M. gypseum) CCM F-8342 (Czech Collection of Microorganisms) were observed by macrodilution method on solidified potato-dextrose growth medium (PDA). During culturing, the diameters of growing fungal colonies were measured at regular intervals. Briefly, the antimicrobial activity (bacteria and yeasts) gallium(III) complexes/ ligands were added to the microbial culture at the beginning of the cultivation-to the lag phase. Pure gallium(III) complexes/ligands were dissolved in DMSO. The final concentration of DMSO never exceeded 1.0 vol. % neither in control nor treated samples. Concentration of gallium(III) complexes used in experimental work for evaluation of antimicrobial activity was used in the range of 0.05–2 mM, for the free ligands in the range of 0.5–2.0 mM in all experiments. […] The IC50 values were evaluated from toxicity curves. All the obtained results of antimicrobial activity were compared to the activity of Ga(NO3)3.

SMILES	dissociation constant pK2 [1]	dissociation constant pK3 [1]	dissociation constant pK1 [1]	effect on the growth of any model microorganism (any model microorganism)
O=C(O)c1cccc(C(=O)O)n1 [H2Dpic, dipicolinic acid]	2.02	4.74	–	–
O=C(O)c1ccccn1 [HPic, picolinic acid]	5.25	–	1.17	did not affect the growth
